The source made the active and inactive calls.

Data on 6 molecules can be found in ChEMBL document CHEMBL1201862, “PubChem BioAssay data set” (2004).

One test addresses T1, Leucine aminopeptidase (Plasmodium falciparum 3D7, UniProt Q8IL11).
T1 sequence (Q8IL11 whole entry): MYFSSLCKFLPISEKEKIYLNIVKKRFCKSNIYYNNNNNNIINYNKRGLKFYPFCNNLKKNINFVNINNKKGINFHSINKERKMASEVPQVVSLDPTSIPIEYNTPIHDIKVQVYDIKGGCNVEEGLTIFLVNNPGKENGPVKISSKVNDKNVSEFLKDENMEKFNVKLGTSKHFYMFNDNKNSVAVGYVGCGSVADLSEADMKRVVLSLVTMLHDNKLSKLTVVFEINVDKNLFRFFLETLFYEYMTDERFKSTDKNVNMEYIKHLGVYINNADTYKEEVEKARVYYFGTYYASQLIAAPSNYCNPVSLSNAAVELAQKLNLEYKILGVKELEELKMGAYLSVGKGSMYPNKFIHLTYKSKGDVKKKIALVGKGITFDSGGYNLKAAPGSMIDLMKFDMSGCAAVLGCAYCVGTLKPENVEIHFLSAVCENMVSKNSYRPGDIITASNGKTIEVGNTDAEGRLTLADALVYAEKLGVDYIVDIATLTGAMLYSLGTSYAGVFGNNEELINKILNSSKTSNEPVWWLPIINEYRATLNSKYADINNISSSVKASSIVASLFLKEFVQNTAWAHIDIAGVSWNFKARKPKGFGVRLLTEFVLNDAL
Kind of test: P. falciparum M17LAP inhibitors, primary screen, biochemical, fluorogenic H-Leu-NHMec substrate, 1536-well (AID 1619). The class given is functional.

In another test the target is T2, Cysteine protease ATG4B (Homo sapiens, UniProt Q9Y4P1).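 Note: Fluorescence-based dose-response confirmation assay measuring inhibition of ATG4B activity.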
T2 sequence (Q9Y4P1 whole entry): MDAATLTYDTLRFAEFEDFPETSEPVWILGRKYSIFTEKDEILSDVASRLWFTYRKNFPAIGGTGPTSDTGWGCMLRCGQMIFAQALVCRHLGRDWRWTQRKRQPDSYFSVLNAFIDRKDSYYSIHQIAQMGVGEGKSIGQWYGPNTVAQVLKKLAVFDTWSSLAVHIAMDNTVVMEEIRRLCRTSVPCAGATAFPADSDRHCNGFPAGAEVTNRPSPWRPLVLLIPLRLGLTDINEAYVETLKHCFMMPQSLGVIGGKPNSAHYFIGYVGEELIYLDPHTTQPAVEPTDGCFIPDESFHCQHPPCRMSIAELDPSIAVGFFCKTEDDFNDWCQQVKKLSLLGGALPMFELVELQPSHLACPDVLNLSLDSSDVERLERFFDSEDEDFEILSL
The class given is functional.

For a further test, the target named is Phospholipase A2 (Homo sapiens, UniProt P04054). It is filed as functional.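 Note: confirmatory dose-response counterscreen on phospholipase A2, testing hits that came from an ultra-high-throughput screen for ATG4B inhibitors.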
In test [1] the target is T3, Carboxy-terminal domain RNA polymerase II polypeptide A small phosphatase 1 (Homo sapiens, UniProt Q9GZU7).
T3 sequence (Q9GZU7 whole entry): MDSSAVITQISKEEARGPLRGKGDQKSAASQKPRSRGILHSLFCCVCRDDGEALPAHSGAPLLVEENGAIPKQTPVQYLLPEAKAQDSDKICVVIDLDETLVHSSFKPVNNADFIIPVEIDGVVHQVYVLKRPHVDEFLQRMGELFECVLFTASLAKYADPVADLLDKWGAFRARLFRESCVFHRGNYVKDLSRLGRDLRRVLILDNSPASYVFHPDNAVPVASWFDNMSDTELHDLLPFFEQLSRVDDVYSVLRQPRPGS
Kind of test: CTDSP1 inhibitors, concentration-response, biochemical, absorbance readout, ultra-high-throughput screen actives (AID 540297). It is filed as functional.

The nature of test [2]: NIH-3T3 fibroblast cytotoxicity, dose response, cytotoxicity control, cell-based, fluorescence, Alamar Blue, secondary assay (AID 2327).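 Note: NIH-3T3 mouse fibroblasts cultured with fluconazole at 8 µg/mL.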 The class given is functional.
Test [3] can be described thus: fluconazole-exposed Candida albicans growth modulators – fluorescence, retest, confirmation (AID 2467). It is filed as functional, cell-based.
The target in test [4] is T4, Serine/threonine-protein phosphatase (Candida dubliniensis (strain CD36 / CBS 7987 / NCPF 3949 / NRRLY-17841) (Yeast), UniProt B9W6M3).
T4 sequence (B9W6M3 whole entry): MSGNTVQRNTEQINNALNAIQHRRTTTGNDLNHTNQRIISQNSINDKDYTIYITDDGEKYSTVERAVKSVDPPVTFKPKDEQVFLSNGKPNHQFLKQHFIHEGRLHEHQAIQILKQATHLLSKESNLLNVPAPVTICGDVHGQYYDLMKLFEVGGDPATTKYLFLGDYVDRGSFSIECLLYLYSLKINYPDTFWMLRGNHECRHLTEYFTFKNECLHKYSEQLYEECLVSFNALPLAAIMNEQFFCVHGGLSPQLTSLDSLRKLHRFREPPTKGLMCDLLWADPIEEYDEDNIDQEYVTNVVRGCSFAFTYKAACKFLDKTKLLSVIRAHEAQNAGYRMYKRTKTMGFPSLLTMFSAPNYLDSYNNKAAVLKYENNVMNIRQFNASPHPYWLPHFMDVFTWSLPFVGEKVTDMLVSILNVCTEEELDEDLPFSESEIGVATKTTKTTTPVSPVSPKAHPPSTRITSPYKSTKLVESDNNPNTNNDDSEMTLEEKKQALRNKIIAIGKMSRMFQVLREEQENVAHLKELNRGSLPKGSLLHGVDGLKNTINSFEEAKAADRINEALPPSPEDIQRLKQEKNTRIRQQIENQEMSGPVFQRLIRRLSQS
As to the kind of experiment: blockers of CaCl2-induced CDRE-lacZ signaling – S. cerevisiae, luminescence, secondary, dose response (AID 2388).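 Note: yeast reporter cells carrying a calcineurin-responsive lacZ construct stimulated with calcium chloride; luminescent beta-galactosidase reporter signal in whole cells rather than isolated phosphatase activity; potency for inhibition where a drop in reporter signal means calcineurin blockade.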 The class given is functional, cell-based.

The next test deals with T5, Bcl-2-related protein A1 (Mus musculus, UniProt Q07440).
T5 sequence (Q07440 whole entry): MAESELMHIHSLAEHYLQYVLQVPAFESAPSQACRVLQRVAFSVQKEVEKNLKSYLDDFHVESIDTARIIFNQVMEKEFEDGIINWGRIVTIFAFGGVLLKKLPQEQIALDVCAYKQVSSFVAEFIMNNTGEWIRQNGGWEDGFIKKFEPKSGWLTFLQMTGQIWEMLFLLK
The class given is functional.

Test [5] concerns the target T6, Ubiquitin-conjugating enzyme E2 N (Homo sapiens, UniProt P61088).
T6 sequence (P61088 whole entry): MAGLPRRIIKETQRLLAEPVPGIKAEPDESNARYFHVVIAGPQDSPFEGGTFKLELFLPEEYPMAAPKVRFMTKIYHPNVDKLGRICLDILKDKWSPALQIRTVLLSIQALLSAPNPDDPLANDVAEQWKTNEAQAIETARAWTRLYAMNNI
It is filed as functional.

Test [6] deals with T6, Ubiquitin-conjugating enzyme E2 N. It is filed as functional. This is another data set of the same source.
The next test concerns Vero. As to the kind of experiment: cells. The settings on record: Chlorocebus sabaeus. It is filed as functional.
For test [7], the target named is ATP-dependent molecular chaperone HSP82 (Candida albicans (strain WO-1) (Yeast), UniProt C4YTQ8). As to the kind of experiment: steroid-induced GRE reporter decrease in yeast – S. cerevisiae, luminescence, Hsp90 inhibitor project, dose response (AID 2400).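 Note: beta-galactosidase luminescence from glucocorticoid response element reporter as proxy for Hsp90 function; inhibitor potency where signal loss means Hsp90 inhibition.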 The class given is functional, cell-based.
In the next test the target is T7, Hexokinase-1 (Homo sapiens, UniProt P19367).
T7 sequence (P19367 whole entry): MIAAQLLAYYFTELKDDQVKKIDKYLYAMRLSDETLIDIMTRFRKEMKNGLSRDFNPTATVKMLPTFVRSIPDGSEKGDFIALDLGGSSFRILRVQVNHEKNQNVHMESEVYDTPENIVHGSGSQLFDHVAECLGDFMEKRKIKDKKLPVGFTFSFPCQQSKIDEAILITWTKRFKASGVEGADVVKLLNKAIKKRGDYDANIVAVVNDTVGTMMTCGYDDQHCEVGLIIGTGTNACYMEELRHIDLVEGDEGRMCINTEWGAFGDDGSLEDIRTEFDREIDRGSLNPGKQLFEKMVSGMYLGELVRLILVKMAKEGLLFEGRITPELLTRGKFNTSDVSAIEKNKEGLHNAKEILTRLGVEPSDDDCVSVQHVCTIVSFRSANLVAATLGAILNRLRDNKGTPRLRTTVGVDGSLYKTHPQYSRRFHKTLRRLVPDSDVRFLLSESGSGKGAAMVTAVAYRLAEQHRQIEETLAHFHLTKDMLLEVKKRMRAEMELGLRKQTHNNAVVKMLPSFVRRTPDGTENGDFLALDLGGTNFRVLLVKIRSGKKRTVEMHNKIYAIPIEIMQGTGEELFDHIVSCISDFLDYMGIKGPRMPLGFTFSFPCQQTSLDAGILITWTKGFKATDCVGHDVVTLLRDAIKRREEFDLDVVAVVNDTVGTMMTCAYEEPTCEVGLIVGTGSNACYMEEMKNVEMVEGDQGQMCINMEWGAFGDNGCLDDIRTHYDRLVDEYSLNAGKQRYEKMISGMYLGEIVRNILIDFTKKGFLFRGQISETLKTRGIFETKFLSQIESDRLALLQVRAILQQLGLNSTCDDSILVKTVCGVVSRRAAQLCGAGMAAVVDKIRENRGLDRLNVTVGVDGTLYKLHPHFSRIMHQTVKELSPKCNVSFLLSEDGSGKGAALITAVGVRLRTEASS
As to the kind of experiment: SAR analysis of small molecule inhibitors of hexokinase domain containing I (HKDC1) in the hexokinase 1 selectivity assay. [Related pubchem assays (depositor defined):AID493160, AID493190]. It is filed as functional.

A further test addresses T8, Hexokinase HKDC1 (Homo sapiens, UniProt Q2TB90).
T8 sequence (Q2TB90 whole entry): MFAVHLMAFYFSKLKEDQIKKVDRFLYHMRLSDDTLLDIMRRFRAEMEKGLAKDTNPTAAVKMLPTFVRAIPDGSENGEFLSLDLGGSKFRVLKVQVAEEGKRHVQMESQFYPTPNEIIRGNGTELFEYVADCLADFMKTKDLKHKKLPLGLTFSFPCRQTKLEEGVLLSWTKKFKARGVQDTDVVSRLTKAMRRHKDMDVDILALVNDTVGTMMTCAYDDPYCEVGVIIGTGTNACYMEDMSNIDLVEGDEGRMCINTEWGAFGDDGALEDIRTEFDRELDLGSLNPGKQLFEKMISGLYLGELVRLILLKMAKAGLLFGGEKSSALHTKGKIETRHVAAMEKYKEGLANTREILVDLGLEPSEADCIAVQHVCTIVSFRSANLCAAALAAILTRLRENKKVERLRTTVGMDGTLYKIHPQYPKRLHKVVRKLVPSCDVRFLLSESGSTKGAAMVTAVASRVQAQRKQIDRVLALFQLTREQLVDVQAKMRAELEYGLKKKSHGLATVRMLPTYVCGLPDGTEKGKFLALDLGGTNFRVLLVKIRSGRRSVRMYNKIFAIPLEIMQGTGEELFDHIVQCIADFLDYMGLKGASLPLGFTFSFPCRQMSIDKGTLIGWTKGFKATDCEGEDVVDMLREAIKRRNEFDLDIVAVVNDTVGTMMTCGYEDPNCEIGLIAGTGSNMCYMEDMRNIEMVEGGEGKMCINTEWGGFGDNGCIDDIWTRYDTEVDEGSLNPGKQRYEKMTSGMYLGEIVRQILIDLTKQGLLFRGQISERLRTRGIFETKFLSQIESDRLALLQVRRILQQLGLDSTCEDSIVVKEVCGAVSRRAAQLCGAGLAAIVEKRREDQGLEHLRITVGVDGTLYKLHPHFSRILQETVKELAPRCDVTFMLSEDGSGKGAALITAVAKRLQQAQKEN
Kind of test: SAR analysis of small molecule inhibitors of hexokinase domain containing I (HKDC1). [Related pubchem assays (depositor defined):AID493160, AID493190]. It is filed as functional.

Sequence of Phospholipase A2 (P04054 whole entry, the tested form may be a part): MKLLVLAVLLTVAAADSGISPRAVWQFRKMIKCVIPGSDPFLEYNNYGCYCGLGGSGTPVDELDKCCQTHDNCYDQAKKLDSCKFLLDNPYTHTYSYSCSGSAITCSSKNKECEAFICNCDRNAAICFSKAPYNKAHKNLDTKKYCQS
Sequence of ATP-dependent molecular chaperone HSP82 (C4YTQ8 whole entry): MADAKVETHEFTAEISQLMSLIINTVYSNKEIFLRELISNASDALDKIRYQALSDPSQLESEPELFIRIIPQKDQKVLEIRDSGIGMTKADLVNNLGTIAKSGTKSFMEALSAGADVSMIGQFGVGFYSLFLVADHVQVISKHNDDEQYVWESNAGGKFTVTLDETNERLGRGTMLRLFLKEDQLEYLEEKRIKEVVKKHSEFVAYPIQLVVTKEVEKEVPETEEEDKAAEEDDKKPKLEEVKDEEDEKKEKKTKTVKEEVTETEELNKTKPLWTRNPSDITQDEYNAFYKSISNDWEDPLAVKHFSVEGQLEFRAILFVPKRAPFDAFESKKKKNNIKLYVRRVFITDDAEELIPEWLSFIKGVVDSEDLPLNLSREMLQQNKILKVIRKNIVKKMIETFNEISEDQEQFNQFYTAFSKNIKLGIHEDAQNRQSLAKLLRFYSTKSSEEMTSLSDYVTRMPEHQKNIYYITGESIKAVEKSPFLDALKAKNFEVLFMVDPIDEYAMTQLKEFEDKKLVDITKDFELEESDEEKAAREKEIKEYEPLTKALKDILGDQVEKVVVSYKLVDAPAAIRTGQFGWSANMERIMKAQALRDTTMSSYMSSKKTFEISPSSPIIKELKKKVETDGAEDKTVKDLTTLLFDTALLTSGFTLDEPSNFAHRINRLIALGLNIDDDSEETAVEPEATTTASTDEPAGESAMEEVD

Regarding `CCOC(=O)c1ccc(/C=C2/C=C(c3ccccc3)N(c3ccc(Cl)c(C(=O)O)c3)C2=O)cc1`, the IC50 was 29.5 µM (active) at Leucine aminopeptidase, 12.3 µM (active) at Cysteine protease ATG4B, 8.04 µM (active) on Phospholipase A2 and 5.15 µM (active) in test [1].
In the case of `c1ccc(CSc2nnc3c(n2)OC(c2ccco2)Nc2ccccc2-3)cc1` (stereo not given), the IC50 on Cysteine protease ATG4B was 43 µM (inactive); at Phospholipase A2, 40.1 µM (inactive).
Regarding `Cc1cc(C)cc(OCC(=O)NNC(=S)NC(=O)C2CC2)c1`, the EC50 in test [2] is 43.5 µM (active); in test [3], 0.962 µM (active); in [4], > 180 µM (inactive); in test [7] it was 17.8 µM (active). Also, the IC50 was > 20 µM (inactive) at Bcl-2-related protein A1, 7.6 µM (active) in [5] and 7.38 µM (active) in test [6]. The CC50 in the test on Vero was > 25 µM (active).
As to `CN(C)c1ccc(/C=C/c2nc3ccccc3c(=O)n2Cc2ccccc2)cc1`, the IC50 at Hexokinase-1 and at Hexokinase HKDC1 was > 80 µM (inactive) each time.
Turning to `COc1cc2c(cc1OC)-c1cc(NCc3ccc4c(c3)OCO4)nc(=O)n1CC2`, the IC50 on Hexokinase-1 and on Hexokinase HKDC1 was > 80 µM (inactive) each time.
Turning to `Cc1ccc(/C=C/c2nc3ccccc3c(=O)n2Cc2ccccc2)cc1`, the IC50 on Hexokinase-1 and at Hexokinase HKDC1 was > 80 µM (inactive) each time.
